Test results from patent US20260240851A1, “Treatment of Parkinson's Disease in a Patient Using a Glucocerebrosidase Activator” (BIAL - R&D Investments, S.A., priority 2023, published 2026).

System: GluCer, GluSph and LacCer in plasma, PBMCs and CSF
Assay: LTI-291-002: glycolipid biomarkers
Type: in vivo, human
Conditions: healthy subjects
Description: This study was a phase 1, randomized, double-blind, placebo-controlled, multiple ascending dose study of Compound A in 4 cohorts of middle-aged to elderly healthy participants (aged 52 to 75 years). […] A total of 39 healthy subjects were enrolled in 4 sequential cohorts. Subjects in each cohort received once-daily oral doses of 3 mg (n=7), 10 mg (n=8), 30 mg (n=8), or 60 mg (n=8) Compound A or placebo (n=8) for 14 days. Pharmacokinetic parameters were determined for each dose at Day 1, Day 7, and Day 14. Cerebrospinal fluid samples for Compound A concentrations were measured before the first dose and 4 hours after the last dose for each dose level. GluCer, glucosyl sphingosine (GluSph), and lactosyl-ceramide (LacCer) were measured in plasma, PBMCs, and CSF as biomarkers of pharmacological effects. Pharmacodynamic measurements consisted of battery of CNS (NeuroCart®) assessments including Saccadic Eye Movements, Smooth Pursuit Eye Movements, Adaptive Tracking, Body Sway, Visual Verbal Learning Test, and pharmaco-EEG.

## CCCCCO[C@H]1CC[C@H](NC(=O)c2cnn3c(C)cc(C)nc23)CC1 [Compound A, 5,7-dimethyl-N-((1S*,4S)-4-(pentyloxy)cyclohexyl)pyrazolo[1,5-a]pyrimidine-3-carboxamide]
14 days of dosing
  consistent pharmacodynamic effect on glycolipids: not observed
14 days
  GluCer and LacCer variables in CSF: sporadic, statistically significant decreases
  GluCer and LacCer variables in plasma and PBMCs: Sporadic, statistically significant increases
